{
  "source": "paper PMC12299140",
  "about": "“Synthetic Analogs of the Alkaloid Cassiarin A with Enhanced Antimalarial Activity” (Pharmaceuticals, 2025)",
  "key": {"[1]": {"tested_on": "Human umbilical vein endothelial cells (HUVECs)", "conditions": "cited from earlier work"}, "[2]": {"tested_on": "chloroquine-sensitive Plasmodium falciparum strain 3D7", "experiment": "Malstat assay, chloroquine-sensitive strain 3D7", "format": "cell-based", "conditions": "for IC50 / IC90: Plasmodium falciparum; for IC50: read-out: P. falciparum 3D7 IC50; for IC90: read-out: P. falciparum 3D7 IC90", "method": "(§1) The chloroquine-sensitive Plasmodium falciparum strain 3D7 and the chloroquine-resistant strain Dd2 were cultivated in vitro at 5% hematocrit in complete medium comprising RPMI 1640/HEPES medium supplemented with 0.5% w/w Albumax II, 10 µg/mL gentamicin, and 50 µg/mL hypoxanthine. Cultures were maintained at 37 °C in an atmosphere of 5% CO2, 5% O2, and 90% N2. To enrich parasites in the ring-stage, an asexual blood stage culture was synchronized. The culture was centrifuged at 1000× g for 3 min, and the supernatant was discarded. The cell pellet was resuspended in 5% sorbitol and incubated at room temperature for 10 min. Subsequently, the culture was centrifuged, and the pellet was washed with RPMI 1640/HEPES medium. After a final centrifugation step, the cell pellet was resuspended in fresh complete medium and returned to standard culture conditions for further cultivation. Human serum and erythrocyte concentrate were obtained from the Department of Transfusion Medicine, University Hospital Aachen, Germany. Donor sera and blood samples were pooled and kept anonymous. The work with human blood was approved by the Ethics Commission of the RWTH University Hospital (EK 007/13).\n(§2) Synchronized ring-stage cultures of the P. falciparum strains 3D7 and Dd2 mixed with the compound were plated in triplicate into 96-well plates (200 µL/well) at a parasitemia of 1%. […] In addition, a dilution series with chloroquine with concentrations between 500 nM and 4 nM was used as a positive control and 0.5% v/v DMSO was used as a negative control. The cultures were then incubated under standard culture conditions for 72 h. Following incubation, 20 µL of the culture was transferred in triplicate to a new 96-well plate and mixed with 100 µL of Malstat reagent (0.1% v/v Triton X-100, 1 g L-lactate, 0.33 g Tris and 33 mg of 3-acetylpyridine adenine dinucleotide in 100 mL distilled water, pH 9.0) and 20 µL mixture of NBT and diaphorase (1:1 v/v; 1 mg/mL stock each). After colour development in the wells, absorbance was measured at OD630nm using a Tecan Plate Reader. The IC50 and IC90 values of the compounds were then determined using the GraphPad Prism software."}, "[3]": {"tested_on": "chloroquine-resistant P. falciparum strain Dd2", "experiment": "Malstat assay, chloroquine-resistant strain Dd2", "format": "cell-based, Plasmodium falciparum", "conditions": "for RI, resistance index = IC50 (Dd2)/IC50 (3D7): Dd2 vs 3D7; for IC50 / IC90: Plasmodium falciparum; for IC50: read-out: IC50 P. falciparum Dd2; for IC90: read-out: IC90 P. falciparum Dd2", "method": "as §1, §2"}, "[4]": {"tested_on": "Human umbilical vein endothelial cells (HUVECs)", "experiment": "Cytotoxicity assay (CellTiter-Blue cell viability assay)", "format": "cell-based", "conditions": "HUVEC, 72 h", "method": "Human umbilical vein endothelial cells (HUVECs) were purchased from Promocell (Heidelberg, Germany) and cultivated with ECGM Kit enhanced (PELO Biotech, Planegg, Germany) supplemented with 10% (FCS) (PAA Laboratories, Cölbe, Germany) and 1% penicillin/streptomycin/amphotericin B (all purchased from PAN Biotech). Cells were cultured at 37 °C with 5% CO2 with constant humidity. Cell proliferation was assessed using the CellTiter-Blue cell viability assay (Promega, Madison, WI, USA). Cells were treated as indicated for 72 h and 4 h before termination CellTiter-Blue reagent was added in a ratio of 1:10. Fluorescence intensity was determined by using the SpectraFluor Plus plate reader (Tecan, Männedorf, Switzerland) at 550 nm excitation and 595 nm emission wavelength. Fluorescence intensity is proportional to the cell number. Non-linear regression was carried out using the log(inhibitor) vs. response–variable slope (four parameters) function of GraphPad Prism (San Diego, CA, USA).\nFigure 4 Cytotoxic effects of cassiarin A (5) and analogs 11b, 11c, and 11d on proliferation of HUVEC assessed by CellTiter-Blue^TM assay. IC50 values were determined using the log(inhibitor) vs. response—variable slope (four parameters) function of GraphPad Prism (10.4.0). Data are shown as mean ± SD."}, "[5]": {"conditions": "chloroquine-sensitive strain 3D7, Malstat assay, 72 h"}, "[6]": {"conditions": "chloroquine-resistant strain Dd2, Malstat assay, 72 h"}},
  "note": "Like-named read-outs stand apart in the source and are kept apart here.",
  "data": [
    {"molecule": "CCN(CC)CCCC(C)Nc1ccnc2cc(Cl)ccc12", "note": "(centres unmarked) [Compound 2, chloroquine, reference compound]", "values": [
      {"measurement": "selectivity index (=IC50 (HUVEC)/IC50 (3D7))", "setting": "[1]", "result": 1987},
      {"measurement": "IC50", "setting": "[2]; 3D7, 72 h", "result": "0.03 ± 0.01", "unit": "µM"},
      {"measurement": "IC90", "setting": "[2]; 3D7, 72 h", "result": "0.05 ± 0.01", "unit": "µM"},
      {"measurement": "RI, resistance index = IC50 (Dd2)/IC50 (3D7)", "setting": "[3]", "result": 5.3},
      {"measurement": "IC50", "setting": "[3]; DD2, 72 h", "result": "0.16 ± 0.04", "unit": "µM"},
      {"measurement": "IC90", "setting": "[3]; DD2, 72 h", "result": "0.23 ± 0.13", "unit": "µM"}
    ]},
    {"molecule": "CC1=Cc2nc(C)cc3cc(O)cc(c23)O1", "note": "[Compound 5, Cassiarin A]", "values": [
      {"measurement": "IC50", "setting": "[2]; [5]", "result": "9.6 ± 0.63", "unit": "µM"},
      {"measurement": "IC90", "setting": "[2]; [5]", "result": "16.4 ± 3.07", "unit": "µM"},
      {"measurement": "IC50", "setting": "[4]", "result": 16.4, "unit": "µM"},
      {"measurement": "RI, resistance index = IC50 (Dd2)/IC50 (3D7)", "setting": "[3]", "result": 1.4},
      {"measurement": "IC50", "setting": "[3]; [6]", "result": "13.6 ± 3.95", "unit": "µM"},
      {"measurement": "IC90", "setting": "[3]; [6]", "result": "20.5 ± 11.9", "unit": "µM"}
    ]},
    {"molecule": "CC1=Cc2nc(CN)cc3cc(O)cc(c23)O1", "note": "[Compound 11a, 5-(Aminomethyl)-2-methylpyrano[2,3,4-ij]isoquinolin-8-ol]", "values": [
      {"measurement": "IC50", "setting": "[2]; [5]", "result": "31.9 ± 11.5", "unit": "µM"},
      {"measurement": "IC90", "setting": "[2]; [5]", "result": "53.3 ± 10.5", "unit": "µM"}
    ]},
    {"molecule": "Oc1cc2c3c(nc(-c4ccccc4)cc3c1)C=C(c1ccccc1)O2", "note": "[Compound 11b, 2,5-Diphenylpyrano[2,3,4-ij]isoquinolin-8-ol]", "values": [
      {"measurement": "IC50", "setting": "[2]; [5]", "result": "2 ± 0.18", "unit": "µM"},
      {"measurement": "IC90", "setting": "[2]; [5]", "result": "2.9 ± 0.53", "unit": "µM"},
      {"measurement": "IC50", "setting": "[4]", "result": 2.22, "unit": "µM"}
    ]},
    {"molecule": "Cc1cc2cc(O)cc3c2c(n1)C=C(c1ccccc1)O3", "note": "[Compound 11c, 5-Methyl-2-phenylpyrano[2,3,4-ij]isoquinolin-8-ol]", "values": [
      {"measurement": "IC50", "setting": "[2]; [5]", "result": "0.4 ± 0.04", "unit": "µM"},
      {"measurement": "IC90", "setting": "[2]; [5]", "result": "0.5 ± 0.11", "unit": "µM"},
      {"measurement": "IC50", "setting": "[4]", "result": 1.23, "unit": "µM"},
      {"measurement": "RI, resistance index = IC50 (Dd2)/IC50 (3D7)", "setting": "[3]", "result": 4.3},
      {"measurement": "IC50", "setting": "[3]; [6]", "result": "1.7 ± 0.74", "unit": "µM"},
      {"measurement": "IC90", "setting": "[3]; [6]", "result": "2.1 ± 1.08", "unit": "µM"}
    ]},
    {"molecule": "NCc1cc2cc(O)cc3c2c(n1)C=C(c1ccccc1)O3", "note": "[Compound 11d, 5-(Aminomethyl)-2-phenylpyrano[2,3,4-ij]isoquinolin-8-ol]", "values": [
      {"measurement": "IC50", "setting": "[2]; [5]", "result": "0.6 ± 0.11", "unit": "µM"},
      {"measurement": "IC90", "setting": "[2]; [5]", "result": "1 ± 0.28", "unit": "µM"},
      {"measurement": "IC50", "setting": "[4]", "result": 0.68, "unit": "µM"},
      {"measurement": "RI, resistance index = IC50 (Dd2)/IC50 (3D7)", "setting": "[3]", "result": 2.0},
      {"measurement": "IC50", "setting": "[3]; [6]", "result": "1.2 ± 0.32", "unit": "µM"},
      {"measurement": "IC90", "setting": "[3]; [6]", "result": "1.8 ± 0.17", "unit": "µM"}
    ]},
    {"molecule": "OCc1cc2cc(O)cc3c2c(n1)C=C(c1ccccc1)O3", "note": "[Compound 11e, 5-(Hydroxymethyl)-2-phenylpyrano[2,3,4-ij]isoquinolin-8-ol]", "values": [
      {"measurement": "IC50", "setting": "[2]; [5]", "result": "2.1 ± 0.38", "unit": "µM"},
      {"measurement": "IC90", "setting": "[2]; [5]", "result": "2.7 ± 0.22", "unit": "µM"}
    ]},
    {"molecule": "OCCc1cc2cc(O)cc3c2c(n1)C=C(c1ccccc1)O3", "note": "[Compound 11f, 5-(2-Hydroxyethyl)-2-phenylpyrano[2,3,4-ij]isoquinolin-8-ol]", "values": [
      {"measurement": "IC50", "setting": "[2]; [5]", "result": "1.7 ± 0.2", "unit": "µM"},
      {"measurement": "IC90", "setting": "[2]; [5]", "result": "3.4 ± 1.28", "unit": "µM"}
    ]},
    {"molecule": "Cc1cc2cc(O)cc3c2c(n1)C=C(c1ccc(O)cc1)O3", "note": "[Compound 11g, 2-(4-Hydroxyphenyl)-5-methylpyrano[2,3,4-ij]isoquinolin-8-ol]", "values": [
      {"measurement": "IC50", "setting": "[2]; [5]", "result": "0.4 ± 0.03", "unit": "µM"},
      {"measurement": "IC90", "setting": "[2]; [5]", "result": "0.9 ± 0.54", "unit": "µM"},
      {"measurement": "RI, resistance index = IC50 (Dd2)/IC50 (3D7)", "setting": "[3]", "result": 4.8},
      {"measurement": "IC50", "setting": "[3]; [6]", "result": "1.9 ± 1.01", "unit": "µM"},
      {"measurement": "IC90", "setting": "[3]; [6]", "result": "5.9 ± 3.42", "unit": "µM"}
    ]},
    {"molecule": "CCCCC1=Cc2nc(C)cc3cc(O)cc(c23)O1", "note": "[Compound 18a, 2-Butyl-5-methylpyrano[2,3,4-ij]isoquinolin-8-ol]", "values": [
      {"measurement": "IC50", "setting": "[2]; [5]", "result": "1.9 ± 0.19", "unit": "µM"},
      {"measurement": "IC90", "setting": "[2]; [5]", "result": "2.5 ± 0.49", "unit": "µM"}
    ]},
    {"molecule": "COc1cc2c3c(nc(C)cc3c1)C=C(c1ccc(OCCO)cc1)O2", "note": "[Compound 18b, 2-(4-(8-Methoxy-5-methylpyrano[2,3,4-ij]isoquinolin-2-yl)phenoxy)ethan-1-ol]", "values": [
      {"measurement": "IC50", "setting": "[2]; [5]", "result": "2.2 ± 0.58", "unit": "µM"},
      {"measurement": "IC90", "setting": "[2]; [5]", "result": "3.2 ± 0.68", "unit": "µM"}
    ]},
    {"molecule": "COC(=O)c1ccc(C2=Cc3nc(C)cc4cc(O)cc(c34)O2)cc1", "note": "[Compound 18c, Methyl 4-(8-hydroxy-5-methylpyrano[2,3,4-ij]isoquinolin-2-yl)benzoate]", "values": [
      {"measurement": "IC50", "setting": "[2]; [5]", "result": "0.2 ± 0.05", "unit": "µM"},
      {"measurement": "IC90", "setting": "[2]; [5]", "result": "0.4 ± 0.14", "unit": "µM"},
      {"measurement": "RI, resistance index = IC50 (Dd2)/IC50 (3D7)", "setting": "[3]", "result": 2.0},
      {"measurement": "IC50", "setting": "[3]; [6]", "result": "0.4 ± 0.21", "unit": "µM"},
      {"measurement": "IC90", "setting": "[3]; [6]", "result": "0.8 ± 0.58", "unit": "µM"}
    ]},
    {"molecule": "C#CCOc1cc2c3c(nc(C)cc3c1)C=C(c1ccccc1)O2", "note": "[Compound 24, 5-Methyl-2-phenyl-8-(prop-2-in-1-yloxy)pyrano[2,3,4-ij]isoquinoline]", "values": [
      {"measurement": "IC50", "setting": "[2]; [5]", "result": "≥ 100", "unit": "µM"},
      {"measurement": "IC90", "setting": "[2]; [5]", "result": "≥ 100", "unit": "µM"},
      {"measurement": "antiplasmodial activity (in words)", "setting": "[2]; strain 3D7, Malstat assay", "result": "complete loss of antiplasmodial activity"}
    ]}
  ]
}
